Laboratory results reported in patent US7452701B2, “Methods for the preparation of β-amino acids” (Wisconsin Alumni Research Foundation, priority 1998, dated 2008).
Entries after “also recorded” stand apart in the source; their conditions may differ.

Columns and labels:
[1] = target: T1, Clostridium subterminale SB4 lysine-2,3-aminomutase (Clostridium subterminale, UniProt Q9XBQ8); experiment: EPR spectroscopy of lysine 2,3-aminomutase and coenzymes mixed with L-α-amino acids; format: biochemical; conditions: amino acid in place of L-lysine, frozen, EPR at 77 K
T1 construct: made in house; host or cells: E. coli BL21(DE3) with pET-23a(+) (lysine 2,3-aminomutase gene) and pAlter-Ex2 (dnaY gene)
Procedure: FIG. 3 is electron paramagnetic resonance (EPR) spectroscopy of Clostridium subterminale SB4 lysine-2,3-aminomutase in the presence of L-lysine (1), L-aspartate (2), L-glutamate (3), or no substrate (4). Reductively incubated recombinant-produced purified lysine-2,3-aminomutase (18) (75 μM-hexamer) was quickly mixed at 24° C. and frozen (total time<15 sec) at −150° C. with the following components: A) Tris(hydroxymethyl)aminomethane sulfate (Tris-sulfate) 240 mM pH 8.0; B) S-(5′-adenosyl)-L-methionine 1.4 mM; C) sodium hydrosulfite 2.0 mM; D) L-lysine, L-aspartate, or L-glutamate 120 mM. Concentrations listed are final concentrations after mixing. Following freezing, samples were evaluated at 77° K by EPR using a Varian model E3 spectrometer with the following settings: Field center—3250 Gauss; Scan width—200 Gauss; Microwave frequency—9.1 GHz; Microwave power—5 milli Watts; Modulation frequency—100 kHz; Modulation amplitude—1.6 Gauss; Time constant—0.3 sec.; Scan time—240 sec; Gain—125,000.
FIG. 4 is electron paramagnetic resonance (EPR) spectroscopy of Clostridium subterminale SB4 lysine-2,3-aminomutase in the presence of L-alanine (2), L-alanine+ethylamine (3) L-alanine+propylamine (4), L-lysine (5) and no substrate (1). Conditions as given in FIG. 3 except L-lysine or L-alanine 120 mM; ± ethylamine or propylamine each 0.19 M or no substrate (5).
FIG. 5 is electron paramagnetic resonance spectroscopy of Clostridium subterminale SB4 lysine-2,3-aminomutase in the presence of L-lysine (1), L-homoserine (2), DL-homocysteine (3), or L-methionine (4). Reductively incubated recombinant-produced purified lysine-2.3-aminomutase (18) (51.4 μM-hexamer) was quickly mixed at 24° C. and frozen (total time<15 sec) at −150° C. with the following components: A) Tris(hydroxymethyl)aminomethane sulfate (Tris-sulfate) 185 mM pH 8.0; B) S-(5′-adenosyl)-L-methionine 1.1 mM; C) sodium hydrosulfite 1.5 mM; D) L-lysine 92 mM, L-homoserine 92 mM, or DL-homocysteine 92 mM, or L-methionine 65 mM. Concentrations listed are final concentrations after mixing. Following freezing, samples were evaluated at 77° K by EPR using a Varian model E3 spectrometer with the following settings: Field center—3250 Gauss; Scan width—200 Gauss; Microwave frequency—9.1 GHz; Microwave power—5 milli Watts; Modulation frequency—100 kHz; Modulation amplitude—1.6 Gauss; Time constant—0.3 sec.; Scan time—240 sec; Gain—250,000. FIG. 4B. 4.6×enlargement of (2), (3), and (4) of FIG. 4A.
Although lysine 2,3-aminomutase is selective for L-lysine as its substrate, it also catalyzes the 2,3-aminomutation of other L-α-amino acids. A simple and definitive assay for such reaction is the EPR spectrum of a mixture of lysine 2,3-aminomutase with its coenzymes and an L-α-amino acid.
The spectral envelope is determined by five structural features in the substrate: 1) the L-configuration at the optically active carbon-2, shown as Cα in FIG. 1A; 2) a hydrogen atom bonded to Cα; 3) a carboxyl group bonded to Cα; 4) a nitrogen atom bonded to Cβ; and 5) a hydrogen atom bonded to Cβ. […] The conformation of the radical is determined by the dihedral angles relating the axis of the π-radical orbital to the bonds Cα—H, Cβ—H, and Cβ—N, and these angles determine the nuclear hyperfine splitting in the spectrum and, thereby, the shape of the spectral envelope.

[2] = target: T1, Clostridium subterminale SB4 lysine-2,3-aminomutase; experiment: Conversion of L-alanine to β-alanine by lysine 2,3-aminomutase, HPLC of PITC derivatives; format: biochemical; conditions: for effect of amine on generation of β-alanine from L-alanine: amine 0.2 M, L-alanine 0.38 M, 90 min at 37° C.
Procedure: FIG. 6 is time course of the appearance of the HPLC peak of β-alanine by Clostridium subterminale SB4 lysine 2,3-aminomutase. Reductively incubated recombinant-produced purified lysine-2,3-aminomutase (18) (10 μM-hexamer) was mixed with the following components: A) N-[2-hydroxyethyl-piperazine-N′-[3-propanesulfonic acid] (EPPS) 36 mM pH 8.0, Na salt; B) S-(5′-adenosyl)-L-methionine 390 μM; C) sodium hydrosulfite 3.6 mM; D) L-alanine 380 mM; E) ethylamine 0.20 M pH 8.0. At various time intervals at 37° C., 60 μl of reaction mix was added to 20 μl of 2 N perchloric acid to stop the reaction. Samples were centrifuged at 14,000×g for 10 mm. The supernatants were treated with phenylisothiocyanate (PITC) according to the method of Heinrikson and Meredith (28). The PITC derivative of L-alanine was separated from the β-alanine derivative by HPLC chromatography (28) using a C18 reverse phase column (Beckman Ultrasphere 5μ, 4.6 mm×25 cm, #235329), flow rate 1 ml/min, room temperature. The amino acids were resolved with a complex linear gradient composed of buffer A: 0.05 M ammonium acetate in water and buffer B: 0.1M ammonium acetate in 44% water, 46% acetonitrile, 10% methanol. The gradient established was 0-10% Buffer B in 35 min, then 10-30% Buffer B in 35 min. The PITC derivative of L-alanine elutes at a retention time of 35.0 min whereas the PITC derivative of β-alanine elutes at 26.6 min.
FIG. 8 is the effect of varying concentrations of L-alanine on the production of β-alanine by Clostridiurn subterminale SB4 lysine 2,3-aminomutase. Experimental conditions as given in FIG. 6 except for the concentration of L-alanine. The concentrations of L-alanine used: 0.05 M (2), 0.11 M (3), 0.20 M (4), and 0.38 M (5). The zero reaction time HPLC elution profile for 0.05 M L-alanine (1) is included. The enzyme was reacted with L-alanine for 90 min at 37° C. prior to stopping with perchloric acid and PITC derivatization.
FIG. 9 is the potentiating effect of ethyl and propylamines on the generation of β-alanine from L-alanine by Clostridium subterminale SB4 lysine 2,3-aminomutase. […]
Reductively incubated recombinant-produced purified Clostridium subterminale SB4 lysine-2,3-aminomutase (10 μM-hexamer) was mixed with the following components: 1) EPPS buffer 36 mM pH 8.0, Na salt; 2) S-(5′-adenosyl)-L-methionine 390 μM; 3) sodium hydrosulfite 3.6 mM; 4) L-alanine 380 mM; 5) ethylamine 0.20 M pH 8.0. […] The eluting compounds were detected by spectrophotometry at a wavelength of 254 nm The amino acids were resolved with a complex linear gradient composed of buffer A: 0.05 M ammonium acetate in water and buffer B: 0.1M ammonium acetate in 44% water, 46% acetonitrile, 10% methanol. […]

[3] = target: T2, Clostridial lysine 2,3-aminomutase (Clostridium subterminale, UniProt Q9XBQ8); conditions: purified enzyme from Clostridium subterminale SB4 cells; Lieder et al., Biochemistry 37:2578 (1998); cited from earlier work
T2 construct: made in house; host or cells: E. coli BL21(DE3) with pET-23a(+) (lysine 2,3-aminomutase gene) and pAlter-Ex2 (dnaY gene)

lysine 2,3-aminomutase = target: T3, lysine 2,3-aminomutase (Bacillus subtilis, UniProt O34676); experiment: Lysine 2,3-aminomutase activity of extracts of E. coli BL21 (DE3) cells expressing the B. subtilus gene; format: biochemical, Bacillus subtilus; conditions: pET23a(+) construct in E. coli BL21 (DE3), induction with 1 mM IPTG
T3 construct: made in house; host or cells: E. coli BL21 (DE3), pET23a(+), NdeI/XhoI; cell extract
Source text: In one instance, the gene from Bacillus subtilus (SEQ ID NO:9) was isolated from chromosomal DNA by PCR generating an oligonucleotide insert which after the appropriate restriction digestion was cloned into the NdeI and XhoI site of pET23a(+) expression vector (Novagen, Inc., Madison, Wis.).

Molecule | EPR spectrum of product-related radical compared with L-lysine [1] | also measured
NC(CCS)C(=O)O (racemic) [DL-homocysteine] | less intense but otherwise essentially indistinguishable from that with L-lysine | 
C[C@H](N)C(=O)O [L-alanine] | less intense but otherwise essentially indistinguishable from that with L-lysine | production of β-alanine from L-alanine ([2]; L-alanine 0.05 M to 0.38 M, ethylamine 0.20 M, 37° C.): β-alanine was produced from L-alanine; also recorded: increased β-alanine with increased substrate (L-alanine) concentration; rate of conversion of L-alanine to β-alanine relative to the rate with 0.2 M ethylamine ([2]; in the absence of ethylamine or propylamine, estimated): about 1/20
N[C@@H](CC(=O)O)C(=O)O [L-aspartate] | less intense but otherwise essentially indistinguishable from that with L-lysine | 
N[C@@H](CCC(=O)O)C(=O)O [L-glutamate] | less intense but otherwise essentially indistinguishable from that with L-lysine | 
N[C@@H](CCO)C(=O)O [L-homoserine] | less intense but otherwise essentially indistinguishable from that with L-lysine | 
CSCC[C@H](N)C(=O)O [L-methionine] | weak but also consistent with expectations for the analogous radical | 
CCCN [Propylamine] |  | effect of amine on generation of β-alanine from L-alanine [2]: potentiates the reaction less effectively than ethylamine
CCN [ethylamine] |  | effect of amine on generation of β-alanine from L-alanine [2]: potentiated
purified lysine 2,3-aminomutase from Clostridium subterminale SB4 cells: naturally produced Clostridial enzyme, SEQ ID NO: 2 (protein, Clostridium subterminale) MINRRYELFKDVSDADWNDWRWQVRNRIETVEELKKYIPLTKEEEEGVAQCVKSLRMAITPYYLSLIDPNDPNDPVRKQAIPTALELNKAAADLEDPLHEDTDSPVPGLTHRYPDRVLLLITDMCSMYCRHCTRRRFAGQSDDSMPMERIDKAIDYIRNTPQVRDVLLSGGDALLVSDETLEYIIAKLREIPHVEIVRIGSRTPVVLPQRITPELVNMLKKYHPVWLNTHFNHPNEITEESTRACQLLADAGVPLGNQSVLLRGVNDCVHVMKELVNKLVKIRVRPYYIYQCDLSLGLEHFRTPVSKGIEIIEGLRGHTSGYCVPTFVVDAPGGGGKTPVMPNYVISQSHDKVILRNFEGVITTYSEPINYTPGCNCDVCTGKKKVHKVGVAGLLNGEGMALEPVGLERNKRHVQE |  | specific activity [3]: 30-40 units/mg
Bacillus subtilus (SEQ ID NO:9): product of the Bacillus subtilus gene cloned in pET23a(+) and expressed in E. coli BL21 (DE3); tested as cell extract (protein, listed as Bacillus subtilis, CDS (1)..(1413), product of the Bacillus subtilus gene cloned in pET23a(+) and expressed in E. coli BL21 (DE3); tested as cell extract) MKNKWYKPKRHWKEIELWKDVPEEKWNDWLWQLTHTVRTLDDLKKVINLTEDEEEGVRISTKTIPLNITPYYASLMDPDNPRCPVRMQSVPLSEEMHKTKYDLEDPLHEDEDSPVPGLTHRYPDRVLFLVTNQCSMYCRYCTRRRFSGQIGMGVPKKQLDAAIAYIRETPEIRDCLISGGDGLLINDQILEYILKELRSIPHLEVIRIGTRAPVVFPQRITDHLCEILKKYHPVWLNTHFNTSIEMTEESVEACEKLVNAGVPVGNQAVVLAGINDSVPIMKKLMHDLVKIRVRPYYIYQCDLSEGIGHFRAPVSKGLEIIEGLRGHTSGYAVPTFVVDAPGGGGKIALQPNYVLSQSPDKVILRNFEGVITSYPEPENYIPNQADAYFESVFPETADKKEPIGLSAIFADKEVSFTPENVDRIKRREAYIANPEHETLKDRREKRDQLKEKKFLAQQKKQKETECGGDSS |  | lysine 2,3-aminomutase activity of cell extracts (lysine 2,3-aminomutase): exhibiting lysine 2,3-aminomutase activity
